From patent US9238654B2, “Singleton inhibitors of sumoylation enzymes and methods for their use” (CITY OF HOPE, priority 2010, dated 2016)
Read-outs that look alike come from different tables or passages of the source.

How the values were obtained:
[1] = Stability in Tris buffer, parent remaining by HPLC-MS; assay type: physicochemical; conditions: for % Remaining after 60 min in 50 mM Tris (−BSA): without BSA; for % Remaining after 60 min in 50 mM Tris (+BSA): with BSA
Protocol: Stable compounds in Tris were tested with and without BSA. Amount of parent compound remaining was quantified using HPLC-MS (area under the curve (AUC) method).

[2] = test system: Immortalized human hepatocytes, Fa2N-4 cells; assay: Hepatocyte toxicity, cell viability by cellular ATP levels; assay type: cell-based; conditions: concentrations up to 50 μM, 24 hrs
Protocol: FIG. 10 illustrates that E1 inhibitor MLS-0437113 has low toxicity in a normal liver cell line. Immortalized human hepatocytes, Fa2N-4 cells (XenoTech) were seeded at ˜50-60K cells/well, and incubated with a range of concentrations (0.01-50 μM) 1, in duplicate, for 24 hrs at 37° C., 5% CO2. Cell viability was determined by cellular ATP levels using the Luminescence ATP Detection Assay System (Tecan).

SUMO E1 or SUMO E2 = target: T1, SUMO E1 or SUMO E2 (Homo sapiens, UniProt Q9UBE0+Q9UBT2); assay: SUMOylation HTS assay, SUMO (AlphaScreen-BSA), SUMOylation of RanGAP1; assay type: biochemical
T1 sequence (Q9UBE0 1-346): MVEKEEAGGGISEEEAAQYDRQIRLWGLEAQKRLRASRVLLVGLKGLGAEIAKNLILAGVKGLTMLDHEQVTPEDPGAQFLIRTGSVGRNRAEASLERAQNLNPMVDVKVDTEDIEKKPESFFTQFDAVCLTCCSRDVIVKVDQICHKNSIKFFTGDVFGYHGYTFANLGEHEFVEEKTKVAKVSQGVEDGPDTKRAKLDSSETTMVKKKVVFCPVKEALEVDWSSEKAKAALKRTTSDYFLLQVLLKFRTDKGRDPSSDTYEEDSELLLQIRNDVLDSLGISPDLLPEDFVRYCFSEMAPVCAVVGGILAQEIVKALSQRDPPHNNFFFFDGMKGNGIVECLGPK
T1 sequence (Q9UBT2 1-640): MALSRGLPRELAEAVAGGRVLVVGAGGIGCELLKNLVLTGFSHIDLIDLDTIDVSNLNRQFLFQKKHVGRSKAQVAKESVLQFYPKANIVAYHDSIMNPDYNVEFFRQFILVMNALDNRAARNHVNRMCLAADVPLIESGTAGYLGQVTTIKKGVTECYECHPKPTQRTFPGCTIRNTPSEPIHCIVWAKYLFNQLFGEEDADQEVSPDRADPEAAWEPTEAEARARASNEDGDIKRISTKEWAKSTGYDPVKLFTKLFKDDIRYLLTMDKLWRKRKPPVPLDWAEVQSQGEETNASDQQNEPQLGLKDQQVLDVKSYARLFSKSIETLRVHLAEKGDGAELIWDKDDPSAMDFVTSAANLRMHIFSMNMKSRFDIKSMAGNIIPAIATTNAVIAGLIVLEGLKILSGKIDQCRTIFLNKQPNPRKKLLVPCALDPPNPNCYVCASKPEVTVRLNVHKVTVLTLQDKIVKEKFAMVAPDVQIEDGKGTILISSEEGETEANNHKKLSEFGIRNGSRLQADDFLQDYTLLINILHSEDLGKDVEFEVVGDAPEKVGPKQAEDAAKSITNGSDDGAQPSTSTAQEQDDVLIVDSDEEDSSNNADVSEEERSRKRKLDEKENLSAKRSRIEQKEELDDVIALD
Protocol: (§1) A lead compound was selected, and is identified herein as MLS0437113 (FIG. 3).
(§2) Each singleton analog was analyzed to determine its inhibitory effect on SUMOylation and ubiquitination, tested both in the HTS format and gel-based format (FIG. 4).

SUMO E1 [3] = target: T2, SUMO E1 (Homo sapiens, UniProt Q9UBE0+Q9UBT2); assay: Gel-based assay of SUMO-RanGap1, E1-SUMO and E2~SUMO thioester conjugate formation; assay type: biochemical; conditions: for Inhibitory effect on SUMOylation, comparison within the series: HTS and gel-based format, each inhibitor 10 μM (FIG. 4); for SUMO-RanGap1 and SUMO-E2 Conjugation Inhibition: strength in words
T2 sequence (Q9UBE0 1-346): T1 sequence (Q9UBE0 1-346)
T2 sequence (Q9UBT2 1-640): T1 sequence (Q9UBT2 1-640)
Protocol: FIG. 4 illustrates a representative assay to determine the efficacy of E1 inhibitors generated from a singleton probe. Stereo-specific effects of this series in inhibiting the SUMO E1. […] Negative and positive controls were reactions in the absence and presence of ATP. […] The compounds that are immediately right to them in the assays, MLS-0437114 and MLS-0437121, are their stereo-isomers, respectively. The stereo chemistry was determined by X-ray crystallography.
as §2
The molecular weight (MW), IC50, strength of SUMO-RanGap1 and SUMO-E2 conjugation inhibition of the SUMO E1 inhibitors derived from the singleton scaffold (see Table 1 above for structures) generated according to the embodiments herein are shown in Table 3 below.

SUMO E1 [4] = target: T2, SUMO E1; assay: Rate of SUMO~E1 product formation with increasing inhibitor concentrations; assay type: biochemical
Protocol: Data is analyzed by fitting to a rectangular hyperbolic to extract IC50 (lower left) or the solution to a quadratic equation to determine Ki^app (lower right).
Their inhibitory constants were measured in the reaction to monitor the rate of SUMO˜E1 product formation in the presence of increasing concentrations of inhibitors (FIG. 5). Inhibition studies were performed in both the presence and absence of 0.02% Triton X-100 to ensure against potential promiscuous inhibition by premicelles due to the formation of aggregates. Inhibition data was fit to a rectangular hyperbolic to extract an IC50 (Equation 1). The Ki^app was extracted by fitting the percent inhibition as a function of inhibitor concentration using equations 1 and 2 (FIG. 5) (Spengler et al. 2005). % Inhibition=([I]*Vmax)/([I]+IC50) (Equation 1) v/v0=(1−(([E]0+[I]+Ki^app)−(([E]0+[I]+Ki^app)^2−4([E]0[I]))^1/2)/2[E]0 (Equation 2)

ubiquitin E1 = target: T3, ubiquitin E1 (Homo sapiens, UniProt P22314); assay: Poly-ubiquitination assay using ubiquitin, ubiquitin E1, Ubc5 and Apc11; assay type: biochemical; conditions: SUMO E1 versus ubiquitin E1, derived from the IC50s of HTS assays
T3 sequence (P22314 1-1058): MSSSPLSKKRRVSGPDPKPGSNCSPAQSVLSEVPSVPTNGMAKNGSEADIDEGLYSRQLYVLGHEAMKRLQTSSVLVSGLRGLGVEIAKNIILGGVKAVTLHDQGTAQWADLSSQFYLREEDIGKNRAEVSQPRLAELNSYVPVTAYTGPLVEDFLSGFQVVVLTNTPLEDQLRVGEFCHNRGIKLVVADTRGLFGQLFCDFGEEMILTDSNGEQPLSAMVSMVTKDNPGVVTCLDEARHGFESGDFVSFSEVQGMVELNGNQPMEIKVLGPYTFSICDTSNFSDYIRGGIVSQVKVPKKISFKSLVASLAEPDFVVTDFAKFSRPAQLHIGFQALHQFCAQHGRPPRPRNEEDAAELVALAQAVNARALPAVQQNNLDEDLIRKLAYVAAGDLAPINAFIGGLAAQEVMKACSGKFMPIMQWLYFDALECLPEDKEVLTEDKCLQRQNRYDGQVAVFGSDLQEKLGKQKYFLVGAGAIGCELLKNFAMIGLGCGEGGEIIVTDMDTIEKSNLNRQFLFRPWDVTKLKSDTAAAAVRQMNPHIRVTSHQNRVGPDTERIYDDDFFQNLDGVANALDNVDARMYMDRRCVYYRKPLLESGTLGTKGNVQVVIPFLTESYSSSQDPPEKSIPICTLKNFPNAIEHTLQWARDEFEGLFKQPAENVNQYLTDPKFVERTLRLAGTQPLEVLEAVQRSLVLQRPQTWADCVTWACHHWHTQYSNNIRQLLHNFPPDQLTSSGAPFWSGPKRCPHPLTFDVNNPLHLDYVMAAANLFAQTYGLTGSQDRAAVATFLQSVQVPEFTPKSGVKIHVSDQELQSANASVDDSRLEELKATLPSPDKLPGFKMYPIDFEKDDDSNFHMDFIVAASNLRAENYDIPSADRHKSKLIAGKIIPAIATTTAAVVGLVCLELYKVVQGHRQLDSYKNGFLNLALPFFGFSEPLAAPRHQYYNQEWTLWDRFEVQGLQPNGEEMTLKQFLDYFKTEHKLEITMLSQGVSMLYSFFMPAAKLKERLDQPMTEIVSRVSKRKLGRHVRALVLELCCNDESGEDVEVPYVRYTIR
Protocol: as §1, §2

MCF-7 cells = assay: Inhibition of global SUMOylation in cells, Western blot with anti-SUMO antibodies; assay type: cell-based; conditions: compound in culture media 8-18 h
Protocol: Western blots (probed with anti-SUMO2/3 antibodies) of cell lysates from MCF-7 cells treated with the inhibitor. SUMO2/3 modifies many proteins as poly-SUMO chains, and is detected as high molecular weight smears.
In this experiment, the compound was added to cell culture media at the indicated concentrations for 8-18 h. Then SUMOylated proteins were detected using anti-SUMO antibodies.

| SMILES | % Remaining after 60 min in 50 mM Tris (−BSA) [1] [%] | SUMO (AlphaScreen-BSA) IC50 (SUMO E1 or SUMO E2) [µM] | SUMO-RanGap1 and SUMO-E2 Conjugation Inhibition (SUMO E1 [3]) | also measured |
| --- | --- | --- | --- | --- |
| COC(=O)C1=C(C(=O)OC)[C@@]2([C@@H](Cc3ccccc3)Nc3ccccc3)C=C[C@@H]1O2 (racemic) [MLS-0437113, Dimethyl 1-(2-Phenyl-1-(phenylamino)ethyl)-7-oxabicyclo[2.2.1]hepta-2,5-diene-2,3-dicarboxylate] | 0 | 0.47 | Strong | Stability in Tris buffer, in words [1]: unstable; Toxicity in human hepatocytes [2]: low toxicity; Inhibitory effect on SUMOylation, comparison within the series (SUMO E1 [3]): most potent inhibitor in this series; Inhibition of SUMO E1, potency in words (SUMO E1 [4]): similarly potent; Inhibition of SUMO E1, potency in words (SUMO E1 [4]; listed as MLS0437113): submicromolar inhibition |
| COC(=O)C1=C(C(=O)OC)C2([C@H](Cc3ccccc3)Nc3ccccc3)C=CC1O2 (mixture of isomers) [MLS-0437114] | – | 11.7 | Weak | Inhibitory effect on SUMOylation, comparison within the series (SUMO E1 [3]): significantly less inhibitory |
| COC(=O)C1=C(C(=O)OC)C2([C@@H](Cc3ccccc3)Nc3ccc(Cl)cc3)C=CC1O2 (mixture of isomers) [MLS-0437120] | 29 | 5.2 | Weak | Inhibitory effect on SUMOylation, comparison within the series (SUMO E1 [3]): more inhibitory than MLS-0437121 |
| COC(=O)C1=C(C(=O)OC)C2([C@H](Cc3ccccc3)Nc3ccc(Cl)cc3)C=CC1O2 (mixture of isomers) [MLS-0437121] | – | 9.2 | Very Weak | – |
| CCC[C@H](Nc1ccccc1)C12C=C[C@H](O1)C(C(=O)OC)=C2C(=O)OC (stereo in doubt) [MLS-0437313] | 48 | – | – | % Remaining after 60 min in 50 mM Tris (+BSA) [1]: 89%; SUMO/ubiquitin Selectivity (ubiquitin E1): >100 |
| COC(=O)C1=C(C(=O)OC)C2([C@@H](Nc3ccccc3)c3ccc(C)cc3)C=C[C@@H]1O2 (stereo in doubt) [MLS-0437317] | 86 | – | – | % Remaining after 60 min in 50 mM Tris (+BSA) [1]: 85%; Stability in Tris buffer, in words [1]: stable; Inhibition of global SUMOylation (MCF-7 cells): inhibited global SUMOylation in a dose-dependent manner; SUMO/ubiquitin Selectivity (ubiquitin E1): >100; Inhibition of SUMO E1, potency in words (SUMO E1 [4]): high potency |
| COC(=O)C1=C(C(=O)OC)C2([C@@H](Cc3ccccc3)Nc3ccc(C)cc3)C=CC1O2 (some centres unmarked) [MLS-0437109] | – | 6.9 | Weak | – |
| COC(=O)C1=C(C(=O)OC)C2([C@H](Cc3ccccc3)Nc3ccc(C)cc3)C=CC1O2 (some centres unmarked) [MLS-0437110] | – | 9.2 | Very Weak | – |
| C=CC[C@@H](Nc1ccccc1)C12C=CC(O1)C(C(=O)OC)=C2C(=O)OC (some centres unmarked) [MLS-0437111] | – | 3.3 | Strong | – |
| COC(=O)C1=C(C(=O)OC)C2([C@@H](Cc3ccccc3)Nc3ccc(OC)cc3)C=CC1O2 (some centres unmarked) [MLS-0437118] | – | 9.5 | Very Weak | – |
| C=CC[C@@H](Nc1ccc(Cl)cc1)C12C=CC(O1)C(C(=O)OC)=C2C(=O)OC (some centres unmarked) [MLS-0437126] | – | 12.5 | Weak | – |
| C=CC[C@H](Nc1ccc(Cl)cc1)C12C=CC(O1)C(C(=O)OC)=C2C(=O)OC (some centres unmarked) [MLS-0437127] | – | 11.5 | Weak | – |
| COC(=O)C1=C(C(=O)OC)C2(C(Nc3ccccc3)c3ccc(F)cc3)C=C[C@@H]1O2 (some centres unmarked) [MLS-0437320] | 84 | – | – | % Remaining after 60 min in 50 mM Tris (+BSA) [1]: 87%; SUMO/ubiquitin Selectivity (ubiquitin E1): >100 |
| COC(=O)C1=C(C(=O)OC)C2(C(Nc3ccccc3)c3ccc(OC(F)(F)F)cc3)C=C[C@@H]1O2 (some centres unmarked) [MLS-0437321] | 82 | – | – | % Remaining after 60 min in 50 mM Tris (+BSA) [1]: 64%; SUMO/ubiquitin Selectivity (ubiquitin E1): >100 |
